We go through twelve molecules from PMC12335596 (Scientific Reports, 2025).

Structures are written as SMILES.

The target of assay [1] is urease (JBU; EC 3.5.1.5) (Canavalia ensiformis, UniProt P07374). Briefly: In vitro urease inhibitory activity. It counts as biochemical, Jack bean.
For assay [2], the target named is Jack bean urease (Canavalia ensiformis, UniProt P07374). As to the kind of experiment: Kinetic study, Lineweaver–Burk plot analysis. It counts as biochemical. The following applies: varying concentrations of inhibitor and urea; Vmax decreased, Km increased.

Broadly, the IC50 is the concentration that gives 50% inhibition.

Chain of urease (JBU; EC 3.5.1.5) (P07374 whole entry, looked up): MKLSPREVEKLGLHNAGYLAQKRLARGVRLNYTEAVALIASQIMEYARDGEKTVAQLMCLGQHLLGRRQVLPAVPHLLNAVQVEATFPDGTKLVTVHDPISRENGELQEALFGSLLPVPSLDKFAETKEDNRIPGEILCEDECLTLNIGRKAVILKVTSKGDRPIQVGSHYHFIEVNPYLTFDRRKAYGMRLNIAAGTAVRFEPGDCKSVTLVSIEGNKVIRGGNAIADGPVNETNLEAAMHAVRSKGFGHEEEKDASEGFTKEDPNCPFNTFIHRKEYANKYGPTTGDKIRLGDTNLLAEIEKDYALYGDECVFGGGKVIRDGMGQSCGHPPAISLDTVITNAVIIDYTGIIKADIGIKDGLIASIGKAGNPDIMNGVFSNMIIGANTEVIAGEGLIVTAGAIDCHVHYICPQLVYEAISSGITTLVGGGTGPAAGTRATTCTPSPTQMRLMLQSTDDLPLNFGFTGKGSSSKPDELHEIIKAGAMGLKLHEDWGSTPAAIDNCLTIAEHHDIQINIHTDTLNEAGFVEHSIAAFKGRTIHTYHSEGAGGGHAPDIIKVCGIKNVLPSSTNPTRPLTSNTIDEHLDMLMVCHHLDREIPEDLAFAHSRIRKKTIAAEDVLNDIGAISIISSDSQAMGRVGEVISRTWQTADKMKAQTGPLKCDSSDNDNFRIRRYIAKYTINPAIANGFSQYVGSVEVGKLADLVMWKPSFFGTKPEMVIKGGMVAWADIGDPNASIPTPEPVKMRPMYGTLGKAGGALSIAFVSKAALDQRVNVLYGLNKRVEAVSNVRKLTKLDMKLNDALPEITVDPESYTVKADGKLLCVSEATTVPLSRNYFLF
Chain of Jack bean urease (P07374 whole entry, looked up): as above

`COc1cc(-c2nc3cc(C(=O)N4CCN(c5ccccc5)CC4)ccc3[nH]2)ccc1OCC(=O)Nc1ccccc1F` [Compound 9 h, N-(2-Fluorophenyl)−2-(2-methoxy-4-(5-(4-phenylpiperazine-1-carbonyl)−1H-benzo[d]imidazol-2-yl)phenoxy)acetamide] showed an IC50 in assay [1] of 2.4 ± 0.36 µM.
Take `COc1cc(-c2nc3cc(C(=O)N4CCN(c5ccccc5)CC4)ccc3[nH]2)ccc1OCC(=O)Nc1ccc(Cl)cc1` [Compound 9k, N-(4-Chlorophenyl)−2-(2-methoxy-4-(5-(4-phenylpiperazine-1-carbonyl)−1H-benzo[d]imidazol-2-yl)phenoxy)acetamide]: the IC50 in assay [1] was found to be 1.78 ± 0.24 µM.
The same measure, in the same setting: then `COc1cc(-c2nc3cc(C(=O)N4CCN(c5ccccc5)CC4)ccc3[nH]2)ccc1OCC(=O)Nc1ccccc1Cl` [Compound 9i, N-(2-Chlorophenyl)−2-(2-methoxy-4-(5-(4-phenylpiperazine-1-carbonyl)−1H-benzo[d]imidazol-2-yl)phenoxy)acetamide], with 9.24 ± 0.37 µM; and `COc1cc(-c2nc3cc(C(=O)N4CCN(c5ccccc5)CC4)ccc3[nH]2)ccc1OCC(=O)Nc1c(C)cccc1C` [Compound 9e, N-(2,6-Dimethylphenyl)−2-(2-methoxy-4-(5-(4-phenylpiperazine-1-carbonyl)−1H-benzo[d]imidazol-2-yl)phenoxy)acetamide], with 1.26 ± 0.06 µM.
In turn, `COc1cc(-c2nc3cc(C(=O)N4CCN(c5ccccc5)CC4)ccc3[nH]2)ccc1OCC(=O)Nc1ccc(C)cc1` [Compound 9d, 2-(2-Methoxy-4-(5-(4-phenylpiperazine-1-carbonyl)−1H-benzo[d]imidazol-2-yl)phenoxy)-N-(p-tolyl)acetamide] showed an IC50 in assay [1] of 12.2 ± 1.09 µM.
On the same count and under the same terms, in the case of `COc1cc(-c2nc3cc(C(=O)N4CCN(c5ccccc5)CC4)ccc3[nH]2)ccc1OCC(=O)Nc1ccc([N+](=O)[O-])cc1` [Compound 9 m, 2-(2-Methoxy-4-(5-(4-phenylpiperazine-1-carbonyl)−1H-benzo[d]imidazol-2-yl)phenoxy)-N-(4-nitrophenyl)acetamide] it was 0.35 ± 0.34 µM; in that of `COc1cc(-c2nc3cc(C(=O)N4CCN(c5ccccc5)CC4)ccc3[nH]2)ccc1OCC(=O)Nc1ccccc1C` [Compound 9b, 2-(2-Methoxy-4-(5-(4-phenylpiperazine-1-carbonyl)−1H-benzo[d]imidazol-2-yl)phenoxy)-N-(o-tolyl)acetamide], 0.82 ± 0.1 µM.
For `COc1cc(-c2nc3cc(C(=O)N4CCN(c5ccccc5)CC4)ccc3[nH]2)ccc1OCC(=O)Nc1ccccc1` [Compound 9a, 2-(2-Methoxy-4-(5-(4-phenylpiperazine-1-carbonyl)−1H-benzo[d]imidazol-2-yl)phenoxy)-N-phenylacetamide], it took 11.1 ± 1.18 µM to reach half-maximal inhibition in assay [1] (IC50). The “fold more potent than standard thiourea (X)” value in assay [1] (ratio of IC50 values, standard thiourea vs compound) was “two-fold”.
For the molecule `COc1cc(-c2nc3cc(C(=O)N4CCN(c5ccccc5)CC4)ccc3[nH]2)ccc1OCC(=O)Nc1cccc(Cl)c1` [Compound 9j, N-(3-Chlorophenyl)−2-(2-methoxy-4-(5-(4-phenylpiperazine-1-carbonyl)−1H-benzo[d]imidazol-2-yl)phenoxy)acetamide], the IC50 in assay [1] was found to be 2.72 ± 0.07 µM.
In the case of `COc1cc(-c2nc3cc(C(=O)N4CCN(c5ccccc5)CC4)ccc3[nH]2)ccc1OCC(=O)Nc1cccc([N+](=O)[O-])c1` [Compound 9 L, 2-(2-Methoxy-4-(5-(4-phenylpiperazine-1-carbonyl)−1H-benzo[d]imidazol-2-yl)phenoxy)-N-(3-nitrophenyl)acetamide], the “mode of enzyme inhibition” value in assay [2] is listed as “mixed inhibitor”. In assay [1], this molecule had an IC50 of 0.15 ± 0.09 µM.
For `CCc1ccc(NC(=O)COc2ccc(-c3nc4cc(C(=O)N5CCN(c6ccccc6)CC5)ccc4[nH]3)cc2OC)cc1` [Compound 9f, N-(4-Ethylphenyl)−2-(2-methoxy-4-(5-(4-phenylpiperazine-1-carbonyl)−1H-benzo[d]imidazol-2-yl)phenoxy)acetamide], the IC50 in assay [1] came out at 0.51 ± 0.1 µM.
For `COc1ccc(NC(=O)COc2ccc(-c3nc4cc(C(=O)N5CCN(c6ccccc6)CC5)ccc4[nH]3)cc2OC)cc1` [Compound 9 g, 2-(2-Methoxy-4-(5-(4-phenylpiperazine-1-carbonyl)−1H-benzo[d]imidazol-2-yl)phenoxy)-N-(4-methoxyphenyl)acetamide], in assay [1] (ratio of IC50 values vs compound 9d), the “fold more potent than 9d” value was “seven-fold”.
